In ChEMBL document CHEMBL1144098, “Laxifloranone, a new phloroglucinol derivative from Marila laxiflora” (J Nat Prod, 1999) one finds Activity, EC50 and IC50 data, which are given here for 2 molecules.

In brackets after ≈: the same amount, converted by molar mass. Activity calls are given as the source filed them. The rule behind the calls is not given here.

The subject of assay [1] is Human immunodeficiency virus 1. As to the kind of experiment: Antiviral activity against HIV1 in human CEM-SS cells assessed inhibition of virus-induced cytopathic effects. The format is functional, organism-based. In general terms: Damage to the host cells serves as the signal in cytopathic effect assays.
Assay [2] deals with Human immunodeficiency virus 1. As to the kind of experiment: Antiviral activity against HIV1 in human CEM-SS cells assessed as cytoprotection against virus-induced cytopathogenicity. It counts as functional.
Setting [3] is: Human immunodeficiency virus 1, CEM-SS.

As a reminder, the EC50 is the midpoint of the concentration-response curve. Read a low EC50 as an effect from little substance. Usually IC50 stands for the concentration that inhibits the measured activity by half.

Regarding `CCOC(=O)NN(OC(=O)C[C@H](c1ccccc1)[C@@]12C(=O)[C@@](CC=C(C)C)(C[C@@H](CC=C(C)C)C1(C)C)C(=O)C(C(=O)CC(C)C)=C2O)C(=O)OCC`, the outcome in assay [1] and in assay [2] was inactive.
`CC(C)=CC[C@@H]1C[C@@]2(CC=C(C)C)C(=O)C(C(=O)CC(C)C)=C(O)[C@]([C@H](CC(=O)O)c3ccccc3)(C2=O)C1(C)C` [LAXIFLORANONE]: in assay [1] (setting [3]), the EC50 turned out to be 0.62 µg/mL (≈ 1.1 µM) and the IC50 is 6.6 µg/mL (≈ 11.7 µM). Further, the Activity in assay [2] is given as 80%.
